Some test systems named below: HCT-15 colon; EKVX NSCLC; HT29 colon; ACHN renal; UO-31 renal; CCRF-CEM leukemia; SF-268 CNS; KM12 colon; A498 renal; HCT-116 colon.
Holding throughout (test): inhibition of tumour cell growth, NCI panel, 48 h

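96-well plates; 48 h exposure; 5 concentrations. Endpoints by linear interpolation between flanking doses. Not reached: highest tested concentration assigned. At the GI50, growth is halved. TGI: concentration producing complete growth inhibition.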

On to `O=C1CC(c2[nH]nc3ccccc23)C(=O)N1c1ccccc1` (stereo not given), for which the TGI in the test on HCT-15 colon is > 100 µM; in the test with EKVX NSCLC it was > 100 µM; in the test with HT29 colon, > 100 µM; with ACHN renal it was > 100 µM; in the test on UO-31 renal, > 100 µM; with CCRF-CEM leukemia, > 71.8 µM. For the same compound, the TGI in the test on SF-268 CNS, in the test on KM12 colon, in the test on A498 renal and in the test with HCT-116 colon was > 100 µM each time.
Consider `O=c1cc(N/N=C/c2ccc(F)cc2)c2cc(Cl)ccc2[nH]1`, for which the GI50 in the test with HCT-15 colon was 19.9 µM; in the test with EKVX NSCLC, 16.8 µM; in the test with HT29 colon, 23.1 µM; in the test on ACHN renal, 17.2 µM; in the test on UO-31 renal, 21.9 µM; with CCRF-CEM leukemia, 12 µM. In addition, the GI50 in the test on SF-268 CNS is 33.6 µM; in the test with KM12 colon it was 22 µM; with A498 renal, 14.8 µM; in the test with HCT-116 colon it was 17.4 µM. The TGI with HCT-15 colon was > 100 µM; in the test on EKVX NSCLC, > 100 µM; in the test with HT29 colon, > 100 µM; in the test on ACHN renal it was 72.1 µM; in the test on UO-31 renal, > 100 µM; with CCRF-CEM leukemia it was > 100 µM. For the same compound, the TGI in the test with SF-268 CNS was > 100 µM; in the test with KM12 colon it was > 100 µM; in the test with A498 renal it was 92.7 µM; in the test on HCT-116 colon, > 100 µM.
Turning to `COc1ccc(CCc2cc(OC)cc(OC)c2)cc1`, the TGI was > 100 µM with HCT-15 colon; > 100 µM in the test with EKVX NSCLC; 47.9 µM with HT29 colon; > 100 µM in the test on ACHN renal; > 100 µM in the test with UO-31 renal; 96.8 µM with CCRF-CEM leukemia. For the same compound, the TGI in the test with SF-268 CNS, in the test with KM12 colon, with A498 renal and with HCT-116 colon was > 100 µM in each case.
As for `COc1ccc(C(=O)C(CC2C(=O)NC(=O)NC2=O)c2ccc(OC)cc2)cc1` (stereo not given), the TGI with HCT-15 colon, in the test with EKVX NSCLC, in the test with HT29 colon, with ACHN renal, with UO-31 renal and in the test on CCRF-CEM leukemia was > 100 µM each time. Besides, the TGI with SF-268 CNS, in the test on KM12 colon, with A498 renal and with HCT-116 colon was > 100 µM each time.
As to `CN(C)c1nc2ccccc2c2c1c1c(n2Cc2ccccc2)-c2ccccc2C1=O`, the GI50 in the test with HCT-15 colon was > 100 µM; with EKVX NSCLC, > 100 µM; in the test with HT29 colon, 12.2 µM; in the test with ACHN renal, > 100 µM; in the test with UO-31 renal, > 100 µM; in the test with CCRF-CEM leukemia, 62.7 µM. Moreover, the GI50 in the test on SF-268 CNS was > 100 µM; in the test with KM12 colon, > 100 µM; with A498 renal, > 100 µM; in the test with HCT-116 colon, 8.79 µM. The TGI in the test with HCT-15 colon, with EKVX NSCLC, in the test with HT29 colon, in the test on ACHN renal, with UO-31 renal and with CCRF-CEM leukemia was > 100 µM each time. The TGI in the test on SF-268 CNS, with KM12 colon, in the test on A498 renal and in the test with HCT-116 colon was > 100 µM in each case.
For `CC(C)Cc1ccc(C(C)CC2=CCC(CN(C)C)C2=O)cc1` (stereo not given), the TGI with HCT-15 colon stood at 7.91 µM; in the test with EKVX NSCLC, 33.9 µM; in the test with HT29 colon, 17.5 µM; with ACHN renal, 30.4 µM; with UO-31 renal it was 30.1 µM; in the test with CCRF-CEM leukemia it was 12.6 µM. Besides, the TGI in the test with SF-268 CNS was 30 µM; in the test on KM12 colon, 10.7 µM; in the test on A498 renal it was 33.4 µM; in the test with HCT-116 colon it was 11.1 µM.
With `N.N.N.N.N.O=[N+]([O-])[O-].[Co+3].[O-][Cl+3]([O-])([O-])[O-]`, the GI50 in the test with HCT-15 colon, in the test on EKVX NSCLC, in the test with HT29 colon, in the test on ACHN renal, in the test on UO-31 renal and in the test on CCRF-CEM leukemia was > 100 µM in each case. The GI50 in the test with SF-268 CNS, in the test with KM12 colon, with A498 renal and with HCT-116 colon was > 100 µM in each case. The TGI in the test on HCT-15 colon, in the test on EKVX NSCLC, in the test with HT29 colon, with ACHN renal, in the test on UO-31 renal and in the test with CCRF-CEM leukemia was > 100 µM each time. The TGI in the test on SF-268 CNS, in the test on KM12 colon, with A498 renal and with HCT-116 colon was > 100 µM each time.
In the case of `Cn1cc(-c2ccc3nnc(Sc4ccc5ncccc5c4)n3n2)cn1`, the GI50 was > 100 µM in the test on HCT-15 colon; 97 µM in the test on EKVX NSCLC; > 100 µM in the test with HT29 colon; 54.1 µM in the test on ACHN renal; 61.9 µM in the test on UO-31 renal; 51.6 µM in the test on CCRF-CEM leukemia. For the same compound, the GI50 in the test with SF-268 CNS is 60.2 µM; in the test with KM12 colon it was > 100 µM; with A498 renal, > 23 µM; with HCT-116 colon, 53 µM. Moreover, the TGI in the test on HCT-15 colon, in the test with EKVX NSCLC, in the test on HT29 colon, with ACHN renal, with UO-31 renal and in the test on CCRF-CEM leukemia was > 100 µM in each case. The TGI was > 100 µM in the test on SF-268 CNS, > 100 µM with KM12 colon, > 93.1 µM in the test on A498 renal and > 100 µM in the test on HCT-116 colon.
Regarding `C=CC(=O)Nc1cc(N2CCN(CC)CC2)ccc1Nc1cc(N(C)C(=O)Nc2c(Cl)c(OC)cc(OC)c2Cl)ncn1`, the GI50 was 6.25 µM with HCT-15 colon; 12.4 µM with EKVX NSCLC; 2.24 µM in the test on HT29 colon; 11.5 µM in the test on ACHN renal; 8.53 µM with UO-31 renal; 3.02 µM in the test on CCRF-CEM leukemia. The GI50 with SF-268 CNS was 5.53 µM; in the test on KM12 colon, 3.09 µM; in the test with A498 renal, 2.18 µM; in the test with HCT-116 colon it was 3.37 µM. Moreover, the TGI in the test on HCT-15 colon came to 21.3 µM; in the test on EKVX NSCLC, 35.9 µM; in the test with HT29 colon, 5.29 µM; in the test on ACHN renal, 23.8 µM; with UO-31 renal, 22.2 µM; in the test on CCRF-CEM leukemia it was 11.2 µM. For the same compound, the TGI in the test on SF-268 CNS is 27.7 µM; in the test on KM12 colon it was 10.3 µM; in the test with A498 renal, 8.53 µM; with HCT-116 colon, 14.2 µM.
